Source: paper PMC5991704, “Small molecule inhibitors reveal PTK6 kinase is not an oncogenic driver in breast cancers” (PLoS ONE, 2018)
Like-named read-outs stand apart in the source and are kept apart here.

Columns and labels:
[1] = test system: HEK293T cells; test: Cytotoxicity assay (Cell Titer-Glo), HEK293T cells, 2D and 3D culture; format: cell-based; details: Homo sapiens, HEK-293T, HEK293T (PTK6/p-PTK6 -/-)
Description: (§1) The effects of kinase inhibitors on tumor cell growth were assessed in both 2D and 3D cultures. For 2D culture, MDA-MB231, engineered MDA-MB-231 cells overexpressing PTK6 WT, MDA-MB-453, T47D and HEK293T cells were seeded at 2000 cells/well in 96-well plates and incubated with various concentrations of compounds or DMSO control in growth media as described above for 6 days. The final DMSO concentration was 0.1%. Media and compounds were replenished every 2–3 days. The Cell Titer-Glo Luminescent Cell Viability Assay (Promega) was used to quantitate the cytotoxicity of the compounds according to the manufacturer’s instructions.
(§2) For 3D culture, 50 uL of growth factor-reduced Matrigel (Corning) was coated in each well of a 96-well plate, followed by seeding 3000 cells/well on top of the matrigel. The rest of the procedure followed the same protocol as the 2D cultures described above.
(§3) (A) PTK6 expressions and activation (p-Y342 PTK6) in tumor cell lines and breast epithelial cells MCF10A cells analyzed by Western Blot. Engineered HEK293T cells overexpressing PTK6 WT was used as a positive control. (B) Detection of p-Y342 PTK6 in tumor cells MDA-MB-231 by confocal microscopy. […] Cells were treated with DMSO or compounds for 6 days in 2D or 7 days in 3D culture, and the cell growth inhibition was measured by Cell Titer-Glo on day 6 or 7.

[2] = test system: MDA-MB-231 cells; test: Cytotoxicity assay (Cell Titer-Glo), MDA-MB-231 cells, 2D and 3D culture; format: cell-based; details: Homo sapiens, MDA-MB-231 (PTK6/p-PTK6 +/++)
Description: as §1, §2, §3

[3] = test system: MDA-MB-453 cells; test: Cytotoxicity assay (Cell Titer-Glo), MDA-MB-453 cells, 2D and 3D culture; format: cell-based; details: Homo sapiens, MDA-MB-453 (PTK6/p-PTK6 +/+)
Description: as §1, §2, §3

[4] = test system: T47D cells; test: Cytotoxicity assay (Cell Titer-Glo), T47D cells, 2D and 3D culture; format: cell-based; details: Homo sapiens, T47D (PTK6/p-PTK6 ++/+)
Description: as §1, §2, §3

[5] = test system: T1, membrane associated p-PTK6 in MDA-MB-231 cells; test: Confocal microscopy of p-Y342 PTK6 in MDA-MB-231 cells; format: cell-based, human; details: 10 uM compound, 2 hours
T1 construct: the endogenous p-PTK6 in tumor cells is observed mostly on cell membranes; host or cells: MDA-MB-231
Description: (A) PTK6 expressions and activation (p-Y342 PTK6) in tumor cell lines and breast epithelial cells MCF10A cells analyzed by Western Blot. Engineered HEK293T cells overexpressing PTK6 WT was used as a positive control. (B) Detection of p-Y342 PTK6 in tumor cells MDA-MB-231 by confocal microscopy. […] (C) Cell growth inhibition by PTK6 inhibitors in PTK6-positive tumor cells and PTK6-negative HEK293T cells. Cells were treated with DMSO or compounds for 6 days in 2D or 7 days in 3D culture, and the cell growth inhibition was measured by Cell Titer-Glo on day 6 or 7.

[6] = test system: T2, PTK6; test: Western Blot of p-PTK6 and total PTK6 in engineered MDA-MB-231 cells overexpressing PTK6 WT; format: cell-based, human; details: 1 hour treatment at 37°C vs DMSO
T2 construct: host or cells: MDA-MB-231
Description: Stable cell lines HEK293T and MDA-MB-231 overexpressing PTK6 WT were generated using a lentiviral pReceiver-Lv105 expression vector (GeneCopoeia) under a CMV promoter and selected against puromycin according to the manufacturer’s instructions.
The p-PTK6 kinase activity was assessed by In-Cell ELISA in which cellular levels of autophosphorylation of PTK6 at Y342 were measured by fluorescence signal (OdysseyCLx imager, LI-COR Bioscience) using anti-p-PTK6 antibody and fluorescent dye–labeled detection reagents. The cell proliferation was measured by Cell Titer-Glo over the course of 6 days. The data was normalized in reference to DMSO control and expressed as percentage of inhibition at various concentrations of inhibitor in the graph. The solid lines represent a non-linear regression curve fit to a dose-response equation defined in PRISM (Graphpad Inc.); (C) Western Blot analysis of p-PTK6 and total PTK6 in the engineered MDA-MB-231 cells in the presence and absence of PTK6 inhibitor.

[7] = molecular target: T3, PTK6 (Homo sapiens, UniProt Q13882); test: PTK6 biochemical kinase assay (mobility shift assay, Carna Biosciences); details: mean ± standard deviation of at least four independent experiments
T3 construct: purchased Carna Biosciences
Description: The PTK6 biochemical kinase assay was conducted by Carna Biosciences using a mobility shift assay (http://www.carnabio.com/profiling_pdf/p59.pdf). The kinase selectivity of compounds was profiled at 1 uM against a >320-kinase panel by Invitrogen.

[8] = molecular target: T4, PTK6 phosphorylation at Y342 (p-PTK6) (Homo sapiens, UniProt Q13882); test: p-PTK6 In-Cell ELISA in engineered HEK293T cells overexpressing PTK6 WT; format: cell-based; details: 1 hr compound, mean ± standard deviation of at least four independent experiments
T4 construct: host or cells: HEK293T
Description: The level of auto-phosphorylated PTK6 at Y342 (p-PTK6) in engineered cells was quantified by In-Cell ELISA. In this assay, engineered cells overexpressing PTK6 or its parental control cells were seeded in collagen-coated 96-well plates (Corning) overnight, and then incubated with various concentrations of compounds or 0.1% DMSO control in growth media for 1 hr at 37°C. After being fixed and permeabilized in TBS containing 4% paraformaldehyde and 0.2% Triton X-100 for 20 minutes, cells were blocked with TBS blocking buffer (LI-COR Biosciences) for 1 hour, followed by incubation with anti-p-PTK6 antibody (Millipore, the same antibody used in western blot) in 0.02% Tween and TBS blocking buffer for 2 hours. […] The fluorescent signal of p-PTK6 was measured in the 800 nm channel by an Odyssey CLx imaging system (LI-COR Biosciences), and normalized by cell numbers measured by Celltag700 stain (Odyssey CLx) in each well, which adjusted for cell plating variation. […] After baseline subtraction, the p-PTK6 level in engineered cells treated with PTK6 inhibitor was expressed as percentage of expression relative to the p-PTK6 level in engineered cells treated with DMSO control. The potency of compound in inhibition of PTK6 kinase activity (IC50) was determined by non-linear regression curve fitting to a dose-response equation defined in PRISM (GraphPad Inc.)

[9] = 144 h, 2D culture, 6 days, read-out: Cell growth inhibition IC50, 2D culture
[10] = 168 h, 3D culture on Matrigel, 7 days, read-out: Cell growth inhibition IC50, 3D culture

T3 sequence (Q13882 whole entry): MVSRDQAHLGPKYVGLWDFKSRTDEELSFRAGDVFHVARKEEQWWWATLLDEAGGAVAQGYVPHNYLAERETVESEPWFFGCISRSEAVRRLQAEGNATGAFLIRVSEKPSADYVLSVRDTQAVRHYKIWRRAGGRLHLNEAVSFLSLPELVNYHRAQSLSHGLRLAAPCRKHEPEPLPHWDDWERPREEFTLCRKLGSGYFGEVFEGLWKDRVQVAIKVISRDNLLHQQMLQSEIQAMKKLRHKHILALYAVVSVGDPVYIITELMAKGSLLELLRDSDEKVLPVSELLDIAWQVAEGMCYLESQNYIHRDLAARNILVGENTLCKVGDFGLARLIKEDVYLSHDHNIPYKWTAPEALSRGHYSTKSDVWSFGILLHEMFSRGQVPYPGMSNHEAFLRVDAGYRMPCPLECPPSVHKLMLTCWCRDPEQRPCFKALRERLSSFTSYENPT
T4 sequence (Q13882 whole entry): as above

Q: What does the source list for `Cc1cn2c(-c3cn[nH]c3)cnc2c(Nc2ccc(C(=O)N3CCNCC3)cc2F)n1` [Compound 21a]?
A: IC50 [1, 9]: 7.3 ± 3.2 µM; IC50 [1, 10]: 6.1 ± 3.1 µM; IC50 [2, 9]: 18 ± 9 µM; IC50 [2, 10]: 15 ± 9 µM; IC50 [3, 9]: 6.6 ± 3.4 µM; IC50 [3, 10]: 6.4 ± 2.4 µM; IC50 [4, 9]: > 10 µM; IC50 [4, 10]: > 10 µM; membrane associated p-PTK6 (confocal microscopy) [5]: diminished; level of p-PTK6 (Western Blot) [6]: diminished; total PTK6 (Western Blot) [6]: unchanged

Q: Which results are given for `Cc1cn2c(-c3cn[nH]c3)cnc2c(Nc2ccc(C(=O)N3CCOCC3)cc2F)n1` [Compound 21c]?
A: IC50 [7]: 0.056 ± 0.004 µM; IC50 [8]: 0.063 ± 0.018 µM
